Data published in patent US6166076A, “Taste enhancing food additives” (Board of Supervisors of Louisiana State University and …, priority 1997, dated 2000).

How the values were obtained:
[1] = test system: delayed rectifying K^+ channels; assay: patch clamp, delayed rectifying K^+ channels of TRCs isolated from S5B/P1 rats; assay type: cell-based
From the text: (§1) To determine if there is a link between the sensitivity of TRCs to PUFAs and dietary fat preferences, the PUFA-sensitivities of TRCs using patch clamp techniques were compared on TRCs isolated from Osborne-Mendel ("O-M") rats and S5B/P1 rats, strains with different dietary preferences. O-M rats prefer fat over carbohydrate, while S5B/P1 rats prefer carbohydrate over fat. […] Rats whose TRCs were more sensitive to the fatty acids have a preference for a lower-fat diet; while rats whose TRCs are less sensitive to fatty acids seek diets that are higher in fat.

[2] = test system: delayed rectifier K^+ channel; assay: whole-cell patch clamp, delayed rectifier K^+ channel (steady-state outward K^+ current at +40 mV) in rat fungiform taste receptor cells; assay type: cell-based, rat (Sprague-Dawley)
From the text: (§2) The effects of free fatty acids ("FFAs") on taste buds isolated from rat fungiform papillae were examined to determine if a chemosensory (i.e. non-textural) cue for fats is located in the mouth. The methods used to isolate TRCs were generally as described in Behe et al., "Membrane Currents in Taste Cells of the Rat Fungiform Papilla: Evidence for Two Types of Ca Currents and Inhibition of K Currents by Saccharin," Journal of General Physiology, Vol. 96, pp. 1061-1084 (1990); Doolin et al., "Distribution and Characterization of Functional Amiloride-sensitive Sodium Channels in Rat Tongue," Journal of General Physiology, Vol. 107. pp. 545-554 (1996); and Gilbertson et al., "Proton Currents Through Amiloride-sensitive Na^+ Channels in Isolated Hamster Taste Cells: Enhancement by Vasopressin and cAMP," Neuron, Vol. 10, pp. 931-942 (1993).
(§3) Individual fungiform taste buds were isolated from the tongues of 2- to 5-month-old male Sprague-Dawley rats (Harlan Sprague Dawley, Indianapolis,Ind.). Animals were housed individually in polycarbonate cages with food (Purina #5001, Purina Mills, St. Louis, Mo.) provided ad lib. The room containing the rats was maintained at 21-23° C. on a 0700-1900 h light-dark cycle. All animal care and experimental procedures were in accordance with National Institutes of Health guidelines, and were approved by the Institutional Animal Care and Use Committee of the Pennington Biomedical Research Center.
(§4) Tongues were removed from euthanized rats, and were immediately placed in ice-cold Tyrode's solution. To remove the lingual epithelium containing the taste buds from the underlying muscle layer, approximately 1.0 ml of Tyrode's solution containing 0.3 mg/ml collagenase A (Boehringer Mannheim Corp., Indianapolis, Ind.), 2.5 mg/ml dispase (grade II; Boehringer Mannheim) and 1.0 mg/ml trypsin inhibitor (type I-S; Sigma Chemical Co., St. Louis, Mo.) was injected below the epithelium. The injected tongue was placed in Ca--Mg free Tyrode's solution and bubbled with O2 for 33-35 min. The lingual epithelium was removed and pinned serosal side up, allowing access to the taste buds. Fungiform taste buds were removed individually by gentle suction with a large, firepolished pipette (~200 μm diameter), and were plated onto Cell-Tak™-coated microscope slides (Collaborative Biomedical Prod., Bedford, Mass.) fitted with an O-ring which served as a recording chamber. Once plated, cells were perfused continually with Tyrode's or various test solutions. Taste buds isolated in this manner were used for up to 6 hours without any noticeable morphological or physiological decrement.
(§5) All chemicals were obtained from Sigma Chemical Corporation (St. Louis, Mo.) unless otherwise indicated. Normal extracellular solution (Tyrode's) contained (in mM): NaCl, 140; KCl, 5; CaCl2, 1; MgCl2, 1; HEPES (N-[2-hydroxyethyl] piperazine-N'-[2-ethanesulfonic acid), 10; glucose, 10; and sodium pyruvate, 10. The pH was adjusted to 7.40 with NaOH. In Ca^2+ --Mg^2+ free Tyrode's solution, 2 mM BAPTA (1,2-bis(2-aminophenoxy) ethane-N,N,N',N'-tetraacetic acid) (Molecular Probes, Eugene, Oreg.) replaced CaCl2 and MgCl2. Other components were identical to Tyrode's solution. Intracellular (pipette) solution contained (in mM): KCl, 140; CaCl2, 1 [free Ca^2+ was ~10^-8 M]; MgCl2, 2; HEPES, 10; EGTA (ethylene glycol-bis(β-aminoethylether)-N,N,N',N'-tetraacetic acid), 11; and ATP, 3. The pH was adjusted to 7.20 with KOH.
(§6) Free fatty acids (FFAs) were stored below -20° C. until the day of use, when they were dissolved in warm ethanol and diluted to final working concentrations in Tyrode's solution. Final ethanol concentrations in Tyrode's were below 0.1%; the ethanol had no effect on ionic currents in any TRCs. All FFAs were applied by bath perfusion. In some experiments, FFA-containing solutions were bubbled continuously with nitrogen to retard oxygenation. […]

[3] = test system: inwardly rectifying K^+ channels (Kir); assay: whole-cell patch clamp, inwardly rectifying K^+ channels (Kir) at -130 mV in rat fungiform taste receptor cells; assay type: cell-based, rat (Sprague-Dawley)
From the text: as §2, §3, §4, §5, §6

[4] = test system: delayed rectifying K^+ channels; assay: patch clamp, delayed rectifying K^+ channels of TRCs isolated from Osborne-Mendel rats; assay type: cell-based
From the text: as §1

[5] = test system: cardiac atrial cells; details: applied extracellularly; cited from earlier work
[6] = test system: ATP-inhibitable K channel (KATP); assay: whole-cell patch clamp, ATP-inhibitable K channel (KATP) residual current in rat fungiform taste receptor cells; assay type: cell-based, rat (Sprague-Dawley); details: glyburide 20 μM; in presence of arachidonic acid and 4-AP; n=6 cells
Description: (§7) Voltage-activated currents were recorded from individual taste receptor cells maintained in the taste bud using the whole-cell patch clamp configuration, as generally described in Hamill et al., "Improved Patch-clamp Techniques for High-resolution Current Recording from Cells and Cell-free Membrane Patches," Pflugers Arch., Vol. 391, pp. 85-100 (1981). […]
(§8) Typical seal resistances on TRC membranes ranged from […] to greater than 50 G.OMEGA.. […] Commands were delivered and data recorded using pCLAMP software (version 6.0.3) interfaced to an AxoPatch 200A amplifier with a Digidata 1200A A-D board (Axon Instruments, Foster City, Calif.). […]
(§9) For analysis, currents during FFA application were averaged over a consistent time range corresponding to the steady-state condition, and were compared to currents in control (Tyrode's) solution. […] For analysis of delayed rectifying K^+ channels, currents were measured at command potentials of +40 mV during steady-state; inwardly rectifying currents, when investigated, were measured at -130 mV. Significant effects of FFAs on K^+ currents were determined by paired Student's t tests (α=0.05) compared to control currents immediately preceding the test stimulus. […]

[7] = test system: inactivating A-type K^+ channels (IA); assay: whole-cell patch clamp, inactivating A-type K^+ current (IA) in rat fungiform taste receptor cells; assay type: cell-based, rat (Sprague-Dawley); details: 4-AP 10 mM; in presence of arachidonic acid; n=10 cells
Description: as §7, §8, §9

CCCCC/C=C\C/C=C\C/C=C\C/C=C\CCCC(=O)O [arachidonic acid]
sensitivity of S5B/P1 TRCs to inhibition compared with O-M TRCs ([1]; 10 μM, versus TRCs from O-M rats): significantly more sensitive to inhibition | inhibition of the delayed rectifying K^+ channels, S5B/P1 rats ([1]; TRCs from S5B/P1 rats): inhibited the delayed rectifying K^+ channels in a concentration-dependent manner | effect on outward K^+ currents, specificity test ([2]; 10 μM, >10 min (maximal effect), significance by paired t test): significantly reduced outward K^+ currents | inhibition of the voltage-activated steady-state outward K^+ current ([2]; 10 μM, +40 mV, n=44 cells): 83% | mean time constant (ton) for the onset of effects ([2]; 10 μM, n=18 cells): 4.37 ± 1.8 min | inhibition of delayed rectifier K^+ channel in presence of NDGA and indomethacin ([2]; NDGA 10 μM and indomethacin 200 μM, n=5 cells): inhibited the delayed rectifier K^+ channel | effect on outward K^+ currents / delayed rectifier K^+ channel (in words) ([2]; arachidonic acid 0.25-100 μM, extracellular, all cells examined): reversible, slowly developing inhibition of the delayed rectifier K^+ channel | time to reach maximum effect on outward K^+ currents ([2]; extracellular arachidonic acid): 10 to 15 min | recovery time constant (toff) from inhibition ([2]; n=18 cells): 10.92 ± 5.9 min | time constant for inactivation of the outward K^+ current ([2]; presence of 10 μM arachidonic acid, control 457±103 msec, n=20): 42 ± 26 ms | Ki ([2]; read-out: inhibition constant (Ki) for the delayed rectifier K^+ channel): 1.02 µM | stimulation of taste receptor cells ([2]; summary statement): stimulate taste receptor cells | change of Kir over control levels, in words ([3]; 10 μM arachidonic acid, approximately 30% of cells): approximately doubling Kir over control levels | Kir compared to control ([3]; 10 μM, -130 mV, n=16 cells, % of control): 191%±19.7 | share of cells in which Kir was activated ([3]; 10 μM, subset of cells, of the total): approximately 30% | activation of Kir in cells that did not show this current in control ([3]; cells without Kir in control (saline) conditions): not able to activate Kir | effect on inward currents in cells without inward rectification ([3]; potentials more negative than -100 mV, n=37 cells): not significantly affected | inhibition of the delayed rectifying K^+ channels, O-M rats [4]: inhibited the delayed rectifying K^+ channels in a concentration-dependent manner | response of cardiac cells [5]: responded

COc1ccc(Cl)cc1C(=O)NCCc1ccc(S(=O)(=O)NC(=O)NC2CCCCC2)cc1 [glyburide]
block of the residual (KATP) current [6]: blocked the residual current

Nc1ccncc1 [4-aminopyridine]
inhibition of the rapidly inactivating current (IA) [7]: reversibly and completely inhibited
